The source of these data is article PMC3794980, “Identification of Conserved and HLA Promiscuous DENV3 T-Cell Epitopes” (PLoS Neglected Tropical Diseases, 2013).

Each structure is given as a SMILES string.

The target in one assay is DRB3*0101 (Homo sapiens, UniProt P01903+P79483). In words: biochemical. Format: binding.
The target of the next assay is DRB5*0101 (Homo sapiens, UniProt P01903+Q30154). Put plainly: biochemical. Format: binding.

Consider `CC[C@H](C)[C@H](N)C(=O)N[C@@H](CCCNC(=N)N)C(=O)N[C@@H](Cc1ccc(O)cc1)C(=O)N[C@@H](CCC(N)=O)C(=O)N[C@H](C(=O)N[C@H](C(=O)N[C@@H](C)C(=O)N[C@H](C(=O)N[C@@H](CCCCN)C(=O)N[C@@H](CO)C(=O)N[C@@H](CCC(=O)O)C(=O)N[C@@H](Cc1c[nH]cn1)C(=O)N[C@H](C(=O)NCC(=O)N[C@@H](CCCNC(=N)N)C(=O)O)[C@@H](C)O)[C@@H](C)O)[C@@H](C)O)[C@@H](C)O` [NS3 241-255], for which the IC50 against DRB3*0101 amounted to 12800 nM; on DRB5*0101, 17 nM.

In the case of `CC[C@H](C)[C@H](N)C(=O)N[C@@H](Cc1ccccc1)C(=O)N[C@@H](CCSC)C(=O)N[C@H](C(=O)N[C@@H](C)C(=O)N[C@H](C(=O)N1CCC[C@H]1C(=O)N1CCC[C@H]1C(=O)NCC(=O)N[C@H](C(=O)N[C@@H](C)C(=O)N[C@@H](CC(=O)O)C(=O)N[C@@H](C)C(=O)N[C@@H](Cc1ccccc1)C(=O)N1CCC[C@H]1C(=O)O)[C@@H](C)O)[C@@H](C)O)[C@@H](C)O` [NS3 313-327], the IC50 at DRB3*0101 was 9440 nM; against DRB5*0101, 13900 nM.

As to `CC[C@H](C)[C@H](NC(=O)[C@H](CO)NC(=O)[C@@H]1CCCN1C(=O)[C@@H](NC(=O)[C@H](Cc1ccccc1)NC(=O)[C@H](Cc1c[nH]c2ccccc12)NC(=O)[C@@H](NC(=O)[C@@H](NC(=O)[C@H](CCCCN)NC(=O)CNC(=O)[C@H](C)NC(=O)[C@H](Cc1ccccc1)NC(=O)[C@H](CC(=O)O)NC(=O)[C@@H](N)[C@@H](C)O)[C@@H](C)O)C(C)C)C(C)C)C(=O)N[C@@H](CCCCN)C(=O)O` [NS3 353-367], the half-inhibitory concentration (IC50) at DRB3*0101 was 15700 nM; against DRB5*0101, 1220 nM.

With `CC[C@H](C)[C@H](NC(=O)[C@@H](NC(=O)[C@H](CCCCN)NC(=O)[C@@H](N)CCCCN)C(C)C)C(=O)N[C@@H](CCC(N)=O)C(=O)N[C@@H](CC(C)C)C(=O)N[C@@H](CO)C(=O)N[C@@H](CCCNC(=N)N)C(=O)N[C@@H](CCCCN)C(=O)N[C@H](C(=O)N[C@@H](Cc1ccccc1)C(=O)N[C@@H](CC(=O)O)C(=O)N[C@H](C(=O)N[C@@H](CCC(=O)O)C(=O)N[C@@H](Cc1ccc(O)cc1)C(=O)O)[C@@H](C)O)[C@@H](C)O` [NS3 381-395], the IC50 stood at 399 nM against DRB3*0101 and 5720 nM against DRB5*0101.

As for `CC(C)C[C@H](NC(=O)[C@H](CCCCN)NC(=O)[C@@H](NC(=O)[C@H](CCCCN)NC(=O)[C@H](CCC(N)=O)NC(=O)[C@H](Cc1ccc(O)cc1)NC(=O)[C@H](CCC(=O)O)NC(=O)[C@@H](N)[C@@H](C)O)[C@@H](C)O)C(=O)N[C@@H](CC(N)=O)C(=O)N[C@@H](CC(=O)O)C(=O)N[C@@H](Cc1c[nH]c2ccccc12)C(=O)N[C@@H](CC(=O)O)C(=O)N[C@@H](Cc1ccccc1)C(=O)N[C@H](C(=O)N[C@H](C(=O)O)C(C)C)C(C)C` [NS3 393-407], the half-maximal inhibitory concentration (IC50) on DRB3*0101 amounted to 3700 nM; against DRB5*0101 it was 15900 nM.

Consider `CC[C@H](C)[C@H](NC(=O)[C@H](CC(=O)O)NC(=O)[C@@H](N)[C@@H](C)O)C(=O)N[C@@H](CO)C(=O)N[C@@H](CCC(=O)O)C(=O)N[C@@H](CCSC)C(=O)NCC(=O)N[C@@H](C)C(=O)N[C@@H](CC(N)=O)C(=O)N[C@@H](Cc1ccccc1)C(=O)N[C@@H](CCCCN)C(=O)N[C@@H](C)C(=O)N[C@@H](CC(=O)O)C(=O)N[C@@H](CCCNC(=N)N)C(=O)N[C@H](C(=O)O)C(C)C` [NS3 409-423], for which the half-inhibitory concentration (IC50) on DRB3*0101 was 168 nM; at DRB5*0101, 50 nM.

As to `CC[C@H](C)[C@H](NC(=O)[C@@H](NC(=O)[C@H](CCCNC(=N)N)NC(=O)[C@H](CC(=O)O)NC(=O)[C@H](C)NC(=O)[C@H](CCCCN)NC(=O)[C@H](Cc1ccccc1)NC(=O)[C@H](CC(N)=O)NC(=O)[C@H](C)NC(=O)CNC(=O)[C@H](CCSC)NC(=O)[C@@H](N)CCC(=O)O)C(C)C)C(=O)N[C@@H](CC(=O)O)C(=O)N1CCC[C@H]1C(=O)N[C@@H](CCCNC(=N)N)C(=O)O` [NS3 413-427], the values for the half-inhibitory concentration (IC50) on DRB3*0101 and on DRB5*0101 were 96 nM and 1200 nM, respectively.

`CSCC[C@H](NC(=O)CNC(=O)CNC(=O)[C@H](Cc1c[nH]cn1)NC(=O)[C@H](CCCCN)NC(=O)[C@H](CCCNC(=N)N)NC(=O)[C@H](CCC(N)=O)NC(=O)[C@H](CC(C)C)NC(=O)[C@H](CCCNC(=N)N)NC(=O)[C@H](CCC(=O)O)NC(=O)[C@@H](N)CC(C)C)C(=O)N[C@@H](CC(C)C)C(=O)N[C@H](C(=O)N[C@@H](CCCNC(=N)N)C(=O)N[C@@H](CC(N)=O)C(=O)N1CCC[C@H]1C(=O)N[C@@H](CC(C)C)C(=O)O)C(C)C` [NS5 193-209]: the results for the IC50 on DRB3*0101 and against DRB5*0101 were 12000 nM and 1200 nM, respectively.

Turning to `CC(C)[C@H](NC(=O)[C@H](CCC(=O)O)NC(=O)[C@H](Cc1ccc(O)cc1)NC(=O)[C@H](CO)NC(=O)CNC(=O)[C@H](Cc1c[nH]cn1)NC(=O)[C@H](Cc1ccc(O)cc1)NC(=O)[C@H](C)NC(=O)[C@H](Cc1c[nH]c2ccccc12)NC(=O)[C@@H](NC(=O)[C@H](CCCCN)NC(=O)[C@H](Cc1ccc(O)cc1)NC(=O)[C@@H]1CCCN1C(=O)[C@H](CC(N)=O)NC(=O)[C@H](CCC(=O)O)NC(=O)[C@@H](N)CC(=O)O)[C@@H](C)O)C(=O)N[C@@H](CCCCN)C(=O)O` [NS5 295-311], the values for the IC50 on DRB3*0101 and against DRB5*0101 were 980 nM and 5290 nM, respectively.

On to `CC(C)[C@H](NC(=O)[C@H](CCC(=O)O)NC(=O)[C@H](Cc1ccc(O)cc1)NC(=O)[C@H](CO)NC(=O)CNC(=O)[C@H](Cc1c[nH]cn1)NC(=O)[C@H](Cc1ccc(O)cc1)NC(=O)[C@H](C)NC(=O)[C@H](Cc1c[nH]c2ccccc12)NC(=O)[C@@H](N)[C@@H](C)O)C(=O)N[C@@H](CCCCN)C(=O)N[C@@H](C)C(=O)N[C@H](C(=O)NCC(=O)N[C@@H](CO)C(=O)N[C@@H](C)C(=O)O)[C@@H](C)O` [NS5 301-316], for which the IC50 against DRB3*0101 came to 536 nM; at DRB5*0101, 1830 nM.

As to `CC(C)C[C@H](NC(=O)CNC(=O)[C@H](CCC(=O)O)NC(=O)CNC(=O)[C@H](CCC(=O)O)NC(=O)[C@@H](NC(=O)CNC(=O)[C@H](CO)NC(=O)[C@H](Cc1ccc(O)cc1)NC(=O)[C@H](CO)NC(=O)[C@H](CC(N)=O)NC(=O)[C@H](CCC(=O)O)NC(=O)[C@H](CCCNC(=N)N)NC(=O)[C@H](CO)NC(=O)[C@H](Cc1ccccc1)NC(=O)[C@H](Cc1c[nH]c2ccccc12)NC(=O)[C@@H](N)Cc1c[nH]cn1)C(C)C)C(=O)O` [NS5 495-511], the IC50 is 1160 nM against DRB3*0101 and 723 nM against DRB5*0101.

As to `CC[C@H](C)[C@H](NC(=O)[C@H](CCCCN)NC(=O)[C@H](CCCCN)NC(=O)[C@H](CCC(=O)O)NC(=O)[C@H](CC(C)C)NC(=O)[C@@H]1CCCN1C(=O)[C@H](Cc1c[nH]cn1)NC(=O)[C@@H]1CCCN1C(=O)[C@H](CC(N)=O)NC(=O)[C@H](CCC(=O)O)NC(=O)[C@H](CC(C)C)NC(=O)[C@H](CC(=O)O)NC(=O)[C@H](C)NC(=O)[C@@H](N)CCCCN)C(=O)N[C@H](C(=O)N[C@@H](CCC(N)=O)C(=O)N[C@@H](Cc1c[nH]c2ccccc12)C(=O)O)[C@@H](C)O` [NS5 630-646], the concentration for half-maximal inhibition (IC50) came to 13700 nM against DRB3*0101 and 15500 nM at DRB5*0101.

With `CC[C@H](C)[C@H](NC(=O)[C@H](CC(C)C)NC(=O)[C@H](CCC(=O)O)NC(=O)[C@H](Cc1c[nH]cn1)NC(=O)[C@H](Cc1ccccc1)NC(=O)[C@H](Cc1c[nH]cn1)NC(=O)[C@H](Cc1c[nH]cn1)NC(=O)[C@H](CO)NC(=O)[C@H](CS)NC(=O)[C@H](Cc1ccccc1)NC(=O)[C@@H]1CCCN1C(=O)[C@@H](NC(=O)[C@H](CCC(N)=O)NC(=O)[C@H](CCC(N)=O)NC(=O)[C@H](Cc1c[nH]c2ccccc12)NC(=O)[C@@H](N)CC(=O)O)C(C)C)C(=O)N[C@@H](CCSC)C(=O)O` [NS5 702-718], the IC50 was 4740 nM against DRB3*0101 and 3220 nM against DRB5*0101.

The term IC50 denotes the concentration needed to halve the response being measured. Read a low IC50 as greater potency in that assay.
